# Experimental data reported in US20240287172A1, “PROTEIN BINDERS TO IRHOM2 EPITOPES” (SCIRHOM GMBH, priority 2019, published 2024).
# Test system: PMA-induced release of endogenous IL-6R from human THP-1 monocytic cells
# Test: ELISA-based IL-6R release assay, PMA-induced, THP-1 cells
# Type: cell-based
# Details: PMA 25 ng/ml, 1 hour, recombinant murine antibodies and IgG at 1 μg/ml, Batimastat at 10 μM
# Experimental: In brief, on day 1, Nunc black MaxiSorp® 96-well plates (Thermo Fisher Scientific, USA) were coated for 7 hours with 100 μl per well of mouse anti-human IL-6R capture antibody (provided as part of the DuoSet ELISA kit) at 2 μg/ml TBS at room temperature. Capture antibody solution was removed and MaxiSorp® plates were blocked with 300 μl per well of TBS, 1% BSA at room temperature for 1.5 hours. Meanwhile, 40,000 THP-1 (American Type Culture Collection, USA) cells in 80 μl of normal growth medium were seeded in each well of Greiner CELLSTAR V-bottom 96-well plates (Thermo Fisher Scientific, USA) and pre-incubated with 20 μl per well of standard growth medium supplemented with Batimastat (BB94, Abcam, UK) at 50 μM as positive control (for a final concentration of 10 μM in the resulting 100 μl sample volume), mouse IgG antibody (Thermo Fisher Scientific, USA) at 5 μg/ml as isotype control (for a final concentration of 1 μg/ml in the resulting 100 μl sample volume) or antibodies of the invention at 5 μg/ml (for a final concentration of 1 μg/ml in the resulting 100 μl sample volume) at 37° C., 5% CO2 for 30 minutes. […] Using an infinite M1000 (Tecan Group, Switzerland) microplate reader, the fluorescence of each well was collected at an excitation wavelength of 435 nm and an emission wavelength of 555 nm.
smiles,measurement,value
CNC(=O)[C@H](Cc1ccccc1)NC(=O)[C@H](CC(C)C)[C@H](CSc1cccs1)C(=O)NO [Batimastat],inhibition at 10 µM,88.6%
